# Measured values as given in patent US20240124389A1, “COMPOUND OR SALT THEREOF, LIPID PARTICLES, AND PHARMACEUTICAL COMPOSITION” (FUJIFILM Corporation, priority 2021, published 2024).
# Key:
# [1] = Particle size of EPO mRNA-encapsulating lipid particles; format: physicochemical
# Method: (§1) The compounds described in Table 1, the neutral lipid, cholesterol (product name: Cholesterol HP; NIPPON FINE CHEMICAL CO., LTD.), and 1,2-dimyristoyl-rac-glycero-3-(methylpolyoxyethylene 2000) (hereinafter, called DMG-PEG2000) (product name: SUNBRIGHT® GM-020; NOF corporation) were dissolved in ethanol at a molar ratio in Table 1 such that the total lipid concentration became 20 mmol/L, thereby obtaining an oil phase.
# (§2) As the neutral lipid, 1,2-distearoyl-sn-glycero-3-phosphocholine (product name: COATSOME® MC-8080; NOF corporation) (hereinafter, DSPC), or L-α-dioleoyl phosphatidylethanolamine (Hereinafter, DOPE) (product name: COATSOME® ME-8181; NOF corporation), or 1,2-dioleoyl-sn-glycero-3-phosphocholine (hereinafter, DOPC) (product name: COATSOME® MC-8181; NOF corporation) was used.
# (§3) EPO mRNA (product name: CleanCap EPO mRNA (5moU); TriLink) was diluted with 50 mmol/L citrate buffer having a pH 4 such that the weight ratio of total lipid concentration to mRNA concentration is about 16:1 to 64:1, thereby obtaining a water phase. Then, the water phase and the oil phase were mixed together using NanoAssemblr (Precision NanoSystems) such that the volume ratio of water phase:oil phase was 3:1, and the mixed solution was 1.5-fold diluted with phosphate buffered saline (PBS), thereby obtaining a dispersion liquid of mRNA lipid particles. The dispersion liquid was dialyzed with a 10% aqueous sucrose solution using a dialysis cassette (Slide-A-Lyzer G2, MWCO: 10 kD, Thermo Fisher Scientific) to remove ethanol, thereby obtaining EPO mRNA-encapsulating lipid particles.
# (§4) The particle size of the mRNA-encapsulating lipid particles was measured by 10-fold diluting the dispersion liquid of lipid particle with phosphate buffered saline (PBS) using Zeta-potential & Particle size Analyzer ELS-Z2 (Otsuka Electronics Co., Ltd.).
# EPO mRNA = assay: mRNA encapsulation rate of EPO mRNA-encapsulating lipid particles; format: physicochemical
# Method: as §1, §2, §3
# (§5) 15 to 30 μL of a 3 mol/L aqueous sodium acetate solution and 4.5 to 9 μL of glycogen were added to 30 to 60 μL of the lipid particles retaining mRNA, and 0.75 to 1.5 mL of ethanol was added thereto, so that only the nucleic acids were precipitated while the lipid was dissolved. Then, the supernatant was removed by centrifugation. The precipitates were air-dried for 15 minutes or longer, then water was added thereto to redissolve the precipitates, and the concentration thereof was measured using Nanodrop NF1000 (Thermo Fisher Scientific), thereby quantifying the total mRNA concentration.
# (§6) The mRNA concentration was quantified using a Quant-iT RiboGreen RNA Assay Kit (Thermo Fisher Scientific) according to the protocol. First, a 20×TE buffer included in the above-described kit was diluted with water, thereby obtaining a 1×TE buffer. TE represents Tris/EDTA (ethylenediaminetetraacetic acid). In order to quantify only mRNA in the outer water phase, the dispersion liquid of lipid particles retaining mRNA was 10,000-fold diluted with the 1×TE buffer. 100 μL of the 10,000-fold diluted dispersion liquid of lipid particles was put into a 96-well plate, then 100 μL of a RiboGreen reagent (reagent included in the Quanti-iT Ribogreen RNA Assay Kit described above) 2,000-fold diluted with the 1×TE buffer was added to a sample, and fluorescence (excitation wavelength: 485 nm, fluorescence wavelength: 535 nm) was measured using a plate reader Infinite F200 (TECAN), thereby quantifying the mRNA concentration in the outer water phase.
# (§7) By using the quantification results of the total mRNA concentration and the mRNA concentration in the outer water phase that were obtained through the above steps, the mRNA encapsulation rate of the mRNA lipid particles was calculated according to the following Equation.
# (§8) mRNA encapsulation rate (%)=(total mRNA concentration-mRNA concentration in outer water phase)/total mRNA concentration×100
# human EPO = assay: Measurement of EPO enzyme activity (EPO protein in blood plasma of mice after intravenous administration of EPO mRNA lipid particles); format: in vivo; details: C57BL/6J mice, tail-vein i.v., mRNA 0.1 mg/kg, plasma 20 to 24 hours
# Method: as §1, §2, §3
# The dispersion liquid of mRNA lipid particles prepared in above-described <Preparation of EPO mRNA-encapsulating lipid particles> was tail-vein intravenously administered to C57BL/6J mice at a mRNA dosage of 0.1 mg/kg. 20 to 24 hours after the administration, blood was collected from the caudal vena cava, thereby obtaining blood plasma. The human EPO enzyme activity was quantified by using the obtained blood plasma and ab119522 Erythropoietin (EPO) Human Elisa Kit (Abcam.plc). The quantitative value is described as a relative amount of EPO protein in a case where Comparative Example 1 is 1.
# [2] = Particle size of FLuc mRNA-encapsulating lipid particles; format: physicochemical; details: lipid/nucleic acid 32 wt/wt
# Method: as §1, with “Table 2,” for “Table 1,”, “HP; NTPPON” for “HP; NIPPON”, “DMG-PEG2000)” for “DMG-PEG2000) (product name: SUNBRIGHT® GM-020; NOF corporation)”, “Table 2” for “Table 1”
# (§9) As the neutral lipid, 1,2-distearoyl-sn-glycero-3-phosphocholine (product name: COATSOME® MC-8080; NOF corporation) was used in a case of Comparative Example 1, and L-α-dioleoylphosphatidylethanolamine (product name: COATSOME® MC-8181; NOF corporation) was used in a case other than Comparative Example 1.
# as §3, with “FLuc” for “EPO”, “(5 moU);” for “(5moU);”, “19:1” for “16:1”, “64:1,” for “64:1, thereby”
# as §4
# FLuc mRNA [3] = assay: mRNA encapsulation rate of FLuc mRNA-encapsulating lipid particles; format: physicochemical; details: aminolipid 45 / DOPE 10 / cholesterol 43.5 / DMG-PEG2000 1.5 mol %, lipid/nucleic acid 32 wt/wt
# Method: as §1, with “Table 2,” for “Table 1,”, “HP; NTPPON” for “HP; NIPPON”, “DMG-PEG2000)” for “DMG-PEG2000) (product name: SUNBRIGHT® GM-020; NOF corporation)”, “Table 2” for “Table 1”
# as §9
# as §3, with “FLuc” for “EPO”, “(5 moU);” for “(5moU);”, “19:1” for “16:1”, “64:1,” for “64:1, thereby”
# as §5, §6, §7, §8
# [4] = Particle size of FLuc mRNA-encapsulating lipid particles; format: physicochemical; details: aminolipid 45 / DOPC 10 / cholesterol 43.5 / DMG-PEG2000 1.5 mol %, lipid/nucleic acid 32 wt/wt
# FLuc mRNA [5] = assay: mRNA encapsulation rate of FLuc mRNA-encapsulating lipid particles; format: physicochemical; details: lipid/nucleic acid 32 wt/wt
# [6] = aminolipid 45 / DOPC 10 / cholesterol 43.5 / DMG-PEG2000 1.5 mol %, lipid/nucleic acid 32 wt/wt
# [7] = aminolipid 45 / DOPE 10 / cholesterol 43.5 / DMG-PEG2000 1.5 mol %, lipid/nucleic acid 32 wt/wt
# [8] = aminolipid 45 / no neutral lipid / cholesterol 53.5 / DMG-PEG2000 1.5 mol %, lipid/nucleic acid 32 wt/wt
# [9] = aminolipid 45 / DOPE 10 / cholesterol 43.5 / DMG-PEG2000 1.5 mol %
# [10] = aminolipid 45 / neutral lipid — (composition printed 10) / cholesterol 53.5 / DMG-PEG2000 1.5 mol %
# [11] = aminolipid 50 / DOPE 10 / cholesterol 38.5 / DMG-PEG2000 1.5 mol %, lipid/nucleic acid 64 wt/wt
# [12] = aminolipid 45 / DOPE 10 / cholesterol 43.5 / DMG-PEG2000 1.5 mol %, lipid/nucleic acid 64 wt/wt
smiles,measurement,setting,value
"CCCCCC(CCCCC)COC(=O)CCCC(CCC)OC(=O)OCCN(CCCN(CC)CC)CCOC(=O)OC(CCC)CCCC(=O)OCC(CCCCC)CCCCC (stereo not drawn) [Example 28, Bis(2-pentylheptyl) 11-(3-(diethylamino)propyl)-7,15-dioxo-5,17-dipropyl-6,8,14,16-tetraoxa-11-azahenicosanedi oate]",Particle size,[1]; [6],82.1 nm
same,Particle size,[1]; [7],115.7 nm
same,Particle size,[1]; [8],155.2 nm
same,Nucleic acid encapsulation rate,EPO mRNA; [6],99.2%
same,Nucleic acid encapsulation rate,EPO mRNA; [7],98.8%
same,Nucleic acid encapsulation rate,EPO mRNA; [8],99.2%
same,Relative amount of EPO protein (with respect to Comparative Example 1),human EPO; [6],3.54
same,Relative amount of EPO protein (with respect to Comparative Example 1),human EPO; [7],1.23
same,Relative amount of EPO protein (with respect to Comparative Example 1),human EPO; [8],1.47
same,Particle size,[2]; [9],82.9 nm
same,Particle size,[2]; [10],164.6 nm
same,Nucleic acid encapsulation rate,FLuc mRNA [3],100.0%
same,Particle size,[4],104.3 nm
same,Nucleic acid encapsulation rate,FLuc mRNA [5]; aminolipid 45 / DOPC 10 / cholesterol 43.5 / DMG-PEG2000 1.5 mol %,99.1%
same,Nucleic acid encapsulation rate,FLuc mRNA [5]; [10],99.1%
"CCCCCCCOC(=O)CCC(CCC(=O)OCCCCCCC)OC(=O)OCCN(CCOC(=O)OC(CCC(=O)OCCCCCCC)CCC(=O)OCCCCCCC)CCN(CC)CC [Example 39, Diheptyl 10-(2-(diethylamino)ethyl)-4,16-bis(3-(heptyloxy)-3-oxopropyl)-6,14-dioxo-5,7,13,15-tetraox a-10-azanonadecanedioate]",Particle size,[1]; [11],147.2 nm
same,Nucleic acid encapsulation rate,EPO mRNA; [11],93.8%
same,Relative amount of EPO protein (with respect to Comparative Example 1),human EPO; [11],8.03
same,Particle size,[2]; [9],141.1 nm
same,Nucleic acid encapsulation rate,FLuc mRNA [3],90.1%
"CCCCCCSCCOC(=O)CCCC(CCCC(=O)OCCSCCCCCC)OC(=O)OCCN(CCOC(=O)OC(CCCC(=O)OCCSCCCCCC)CCCC(=O)OCCSCCCCCC)CCN(CC)CC [Example 43, Bis(2-(hexylthio)ethyl) 11-(2-(diethylamino)ethyl)-5,17-bis(4-(2-(hexylthio)ethoxy)-4-oxobutyl)-7,15-dioxo-6,8,14,16-tetraoxa-11-azahenicosanedioate]",Particle size,[1]; [12],155.0 nm
same,Nucleic acid encapsulation rate,EPO mRNA; [12],95.7%
same,Relative amount of EPO protein (with respect to Comparative Example 1),human EPO; [12],3.12
same,Particle size,[2]; [9],144 nm
same,Nucleic acid encapsulation rate,FLuc mRNA [3],100.0%
"CCN(CC)CCN(CCOC(=O)OC(CCCC(=O)OCCCCCCCCSC)CCCC(=O)OCCCCCCCCSC)CCOC(=O)OC(CCCC(=O)OCCCCCCCCSC)CCCC(=O)OCCCCCCCCSC [Example 44, Bis(8-(methylthio)octyl) 11-(2-(diethylamino)ethyl)-5,17-bis(4-((8-(methylthio)octyl)oxy)-4-oxobutyl)-7,15-dioxo-6,8,14,16-tetraoxa-11-azahenicosanedioate]",Particle size,[1]; [12],201.9 nm
same,Nucleic acid encapsulation rate,EPO mRNA; [12],81.2%
same,Relative amount of EPO protein (with respect to Comparative Example 1),human EPO; [12],1.39
same,Particle size,[2]; [9],170.5 nm
same,Nucleic acid encapsulation rate,FLuc mRNA [3],100.0%
